Measurements: US20250289814A1, “COMPOUNDS AS PARP1 INHIBITIORS” (NINGBO NEWBAY TECHNOLOGY DEVELOPMENT CO., LTD., priority 2022, published 2025)
Where two headings read alike, the source gives them in different places.

Assays:
[1] = target: Recombinant full length PARP2 (Homo sapiens (Human), UniProt Q9UGN5); assay: FP assay PARP2 (fluorescence anisotropy probe displacement); assay type: binding; settings: 60 nM PARP2, 8 nM fluorescent probe, 4 h, room temperature
Procedure: (§1) FP experiments were carried out at room temperature using no-binding black 384-well microplates. Recombinant full length PARP1 and PARP2 proteins produced in house were diluted to 20 nM and 60 nM, respectively, with assay buffer (50 mM Tris pH 8, 0.001% Triton X100, 10 mM MgCl2, and 150 mM NaCl) and incubated for 4 h with an equivalent volume of the 8 nM fluorescent probe diluted with assay buffer. Fluorescence anisotropy of the probe when bound to the proteins was measured in the presence of test compounds or solvent control and the effect on anisotropy determined. Polarization values were read using an Envision plate reader using excitation and emission wavelengths of 590 and 630 nm, respectively. All FP values are expressed as mP units. Inhibition ratio was calculated using readout (mP) following the equation as below: […]
(§2) % inhibition values for different test compound concentrations were calculated and fitted to a four parameter logistic plot in order to determine the IC50 value using XLfit.

[2] = Caco2 (A-B/B-A) permeability; assay type: in vitro ADME; settings: human; for efflux ratio at 120 min, 5 μM: Caco-2, pH 7.4, PappB-A/PappA-B, read-out: Caco2 efflux ratio (ER); for Papp A→B at 120 min, 5 μM: Caco-2, pH 7.4, apical-to-basolateral, read-out: Caco2 A-B apparent permeability (Papp); for Papp A→B at 120 min, 5 μM / Papp B→A at 120 min, 5 μM: HBSS pH 7.4, 120 min, 37° C.; for Papp B→A at 120 min, 5 μM: Caco-2, pH 7.4, basolateral-to-apical, read-out: Caco2 B-A apparent permeability (Papp)
Procedure: The apical-to-basolateral (A-B) and basolateral-to-apical (B-A) transport of 5 μM test compounds in HBSS (10 mM HEPES, pH 7.4) was measured across Caco-2 cell monolayers (cells sourced from American Type Culture Collection, Manassas, Virgina). Duplicate incubations were performed at approximately 37° C. for 120 min, with functionality of the test system confirmed using 5 μM propranolol and digoxin as control compounds. Aliquots (50 μL) from both apical and basolateral wells were transferred into two fresh 96-well plates and quenched with acetonitrile solution containing analytical internal standards. Samples were vortexed mixed, centrifuged and a 100 μL aliquot of the resulting supernatant mixed with an equal volume of ultra-pure water prior to analysis by UPLC-MS/MS. The concentrations of test compound and control compounds in the incubation medium of donor and receiver compartments at the beginning and the end of the incubation period were used to calculate the apparent permeability (Papp) from A-B and B-A directions. The efflux ratio (ER) was expressed as PappB-A/PappA-B. The integrity of the cell monolayers after 2 hours incubation was confirmed using the marker reagent Lucifer yellow.

[3] = target: Recombinant full length PARP1 (Homo sapiens (Human), UniProt P09874); assay: FP assay PARP1 (fluorescence anisotropy probe displacement); assay type: binding; settings: 20 nM PARP1, 8 nM fluorescent probe, 4 h, room temperature
Chain of Recombinant full length PARP1 (P09874 whole entry): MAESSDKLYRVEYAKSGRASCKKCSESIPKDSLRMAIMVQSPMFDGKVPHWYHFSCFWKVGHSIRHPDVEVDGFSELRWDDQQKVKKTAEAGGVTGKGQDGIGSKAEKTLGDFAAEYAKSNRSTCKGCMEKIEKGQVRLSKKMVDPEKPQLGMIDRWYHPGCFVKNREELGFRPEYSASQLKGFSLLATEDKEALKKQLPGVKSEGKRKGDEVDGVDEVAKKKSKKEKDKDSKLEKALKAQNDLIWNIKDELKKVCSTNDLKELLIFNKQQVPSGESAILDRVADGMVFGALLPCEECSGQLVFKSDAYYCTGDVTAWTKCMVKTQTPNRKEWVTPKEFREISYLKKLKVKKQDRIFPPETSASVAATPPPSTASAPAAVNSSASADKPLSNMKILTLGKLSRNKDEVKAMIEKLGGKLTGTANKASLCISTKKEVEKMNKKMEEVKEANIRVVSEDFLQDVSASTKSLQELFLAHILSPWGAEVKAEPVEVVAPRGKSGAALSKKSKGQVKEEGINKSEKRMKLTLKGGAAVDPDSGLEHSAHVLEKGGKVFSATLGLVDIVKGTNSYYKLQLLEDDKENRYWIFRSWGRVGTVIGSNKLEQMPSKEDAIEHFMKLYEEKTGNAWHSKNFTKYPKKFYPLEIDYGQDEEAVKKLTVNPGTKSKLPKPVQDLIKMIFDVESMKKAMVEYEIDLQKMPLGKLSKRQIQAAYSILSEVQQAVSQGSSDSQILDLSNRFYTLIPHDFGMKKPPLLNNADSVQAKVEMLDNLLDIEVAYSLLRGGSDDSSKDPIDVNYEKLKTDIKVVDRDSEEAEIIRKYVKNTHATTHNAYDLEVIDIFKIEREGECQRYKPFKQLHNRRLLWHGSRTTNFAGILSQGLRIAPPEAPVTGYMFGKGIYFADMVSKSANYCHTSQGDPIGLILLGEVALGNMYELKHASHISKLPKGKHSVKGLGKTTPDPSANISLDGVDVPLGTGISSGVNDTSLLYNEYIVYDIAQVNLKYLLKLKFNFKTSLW
Procedure: as §1, §2

DLD1-BRCA2−/− cells = assay: Cell proliferation assay in DLD1-BRCA2−/− cell lines (CellTiter-Glo, 7 days); assay type: cell-based
Procedure: BRCA2 (−/−) cells cultured in RPMI 1640+10% FBS were harvested and diluted to a density of 1×10^4 cells/mL and 2×10^4 cells/mL, respectively. Cells (40 μL/well) were seeded into 384-well cell culture plates. Plates were covered and incubated at 37° C., 5% CO2 overnight prior to the addition of test compounds or vehicle. The plates were then incubated at 37° C., 5% CO2 for 7 days. On day 8, the plates were removed from incubator and equilibrated at room temperature for 15 minutes. CellTiter-Glo (40 μL, at 1:1 to culture medium) is added into each well and the plates were placed at room temperature for 30 min. Luminescence was measured using an Envision plate reader. The resultant data were analysed as follows; where LC is culture medium without cells:
% inhibition values for different test compound concentrations were calculated and fitted to a four parameter logistic plot in order to determine the IC50 value using XLfit

Chain of Recombinant full length PARP2 (Q9UGN5 whole entry): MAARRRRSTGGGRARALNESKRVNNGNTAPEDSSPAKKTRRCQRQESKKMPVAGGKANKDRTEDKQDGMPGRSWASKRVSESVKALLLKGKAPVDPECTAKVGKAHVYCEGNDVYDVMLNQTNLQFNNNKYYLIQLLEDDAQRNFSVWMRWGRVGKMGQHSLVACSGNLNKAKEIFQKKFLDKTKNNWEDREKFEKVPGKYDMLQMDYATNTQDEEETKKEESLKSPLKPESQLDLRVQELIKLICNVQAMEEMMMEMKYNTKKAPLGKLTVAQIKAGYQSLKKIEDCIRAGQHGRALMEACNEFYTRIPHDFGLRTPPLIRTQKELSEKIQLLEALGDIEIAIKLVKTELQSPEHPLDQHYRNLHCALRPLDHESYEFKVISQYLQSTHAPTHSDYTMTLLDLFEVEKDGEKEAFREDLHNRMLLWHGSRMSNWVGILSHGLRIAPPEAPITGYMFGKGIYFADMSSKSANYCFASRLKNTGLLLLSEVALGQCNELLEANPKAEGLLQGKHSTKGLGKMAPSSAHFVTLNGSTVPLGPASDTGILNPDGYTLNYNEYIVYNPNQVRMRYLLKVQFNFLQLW

IC50 [1] [nM] | efflux ratio at 120 min, 5 μM [2] | Papp A→B at 120 min, 5 μM [2] [×10⁻⁶ cm/s] | Papp B→A at 120 min, 5 μM [2] [×10⁻⁶ cm/s] | IC50 [3] [nM] | IC50 (DLD1-BRCA2−/− cells; Homo sapiens, DLD-1, 168 h) [nM] | IC50 (DLD1-BRCA2−/− cells) [nM] | Compound
> 10000 | 9.29 | 3.32 | 30.8 | 7 | 62.1 |  | CNC(=O)c1ccc(OC2CN(Cc3cnc4cc(C5CC5)c(=O)[nH]c4c3)C2)cn1 [Compound 6, 5-((1-((7-cyclopropyl-6-oxo-5,6-dihydro-1,5-naphthyridin-3-yl)methyl)azetidin-3-yl)oxy)-N-methylpicolinamide]
> 10000 | 9.69 | 4.13 | 40 | 4.8 | 6 |  | CCc1cc2ncc(CN3CC[C@@H](Oc4ccc(C(=O)NC)nc4)C3)cc2[nH]c1=O [Compound 11, (R)-5-((1-((7-ethyl-6-oxo-5,6-dihydro-1,5-naphthyridin-3-yl)methyl)pyrrolidin-3-yl)oxy)-N-methylpicolinamide]
> 10000 | 5.03 | 6.32 | 31.8 | 9.3 | 57.6 |  | CCc1nc2ccc(CN3CC[C@@H](Oc4ccc(C(=O)NC)nc4)C3)cc2[nH]c1=O [Compound 28, (R)-5-((1-((2-ethyl-3-oxo-3,4-dihydroquinoxalin-6-yl)methyl)pyrrolidin-3-yl)oxy)-N-methylpicolinamide]
> 10000 |  |  |  | 18 | 195 |  | CCc1cc2ncc(CN3CCC(Oc4ccc(C(=O)NC)nc4)CC3)cc2[nH]c1=O [Compound 15, 5-((1-((7-ethyl-6-oxo-5,6-dihydro-1,5-naphthyridin-3-yl)methyl)piperidin-4-yl)oxy)-N-methylpicolinamide]
> 10000 | 19.2 | 1.47 | 28.3 | 7.7 | 288 |  | CCc1cc2ncc(CN3CC(Oc4cnc(C(=O)NC)c(F)c4)C3)cc2[nH]c1=O [Compound 2, 5-((1-((7-ethyl-6-oxo-5,6-dihydro-1,5-naphthyridin-3-yl)methyl)azetidin-3-yl)oxy)-3-fluoro-N-methylpicolinamide]
> 10000 |  |  |  | 6.62 |  | 40.7 | CNC(=O)c1ccc(O[C@@H]2CCN(Cc3cnc4cc(C5CC5)c(=O)[nH]c4c3)C2)cn1 (single isomer, unassigned) [Compound 61, (enantiomer 1 or 2)-5-((1-((7-cyclopropyl-6-oxo-5,6-dihydro-1,5-naphthyridin-3-yl)methyl)pyrrolidin-3-yl)oxy)-N-methylpicolinamide]
365 | 10.5 | 4.18 | 43.9 | 6.4 |  | 69.3 | CCc1cc2ncc([C@@H](C)N3CC(Oc4ccc(C(=O)NC)nc4F)C3)cc2[nH]c1=O (single isomer, unassigned; enantiomer 1) [Compound 45, (enantiomer 1)-5-((1-(1-(7-ethyl-6-oxo-5,6-dihydro-1,5-naphthyridin-3-yl)ethyl)azetidin-3-yl)oxy)-6-fluoro-N-methylpicolinamide]
> 10000 | 11.8 | 2.45 | 28.8 | 3.8 | 51.1 |  | CCc1cc2ncc(CN3C[C@@H](F)[C@@H](Oc4ccc(C(=O)NC)nc4)C3)cc2[nH]c1=O [Compound 8, 5-(((3S, 4R)-1-((7-ethyl-6-oxo-5,6-dihydro-1,5-naphthyridin-3-yl)methyl)-4-fluoropyrrolidin-3-yl)oxy)-N-methylpicolinamide]
> 10000 | 2.09 | 14.9 | 31.2 | 35.2 | 18.9 |  | CCc1nc2ccc([C@H](C)N3CC(Oc4ccc(C(=O)NC)nc4)C3)cc2[nH]c1=O (single isomer, unassigned) [Compound 52, (enantiomer 1 or 2)-5-((1-(1-(2-ethyl-3-oxo-3,4-dihydroquinoxalin-6-yl)ethyl)azetidin-3-yl)oxy)-N-methylpicolinamide]
> 10000 |  |  |  | 64.3 |  | > 1000 | CNC(=O)c1ccc(O[C@@H]2CCN(Cc3cnc4cc(C5CC5)c(=O)[nH]c4c3)C2)cn1 (single isomer, unassigned) [Compound 60, (enantiomer 1 or 2)-5-((1-((7-cyclopropyl-6-oxo-5,6-dihydro-1,5-naphthyridin-3-yl)methyl)pyrrolidin-3-yl)oxy)-N-methylpicolinamide]
> 10000 |  |  |  | 44.7 | > 1000 |  | CCc1cc2ncc(CN3CC[C@H](Oc4ccc(C(=O)NC)nc4)C3)cc2[nH]c1=O [Compound 58, (S)-5-((1-((7-ethyl-6-oxo-5,6-dihydro-1,5-naphthyridin-3-yl)methyl)pyrrolidin-3-yl)oxy)-N-methylpicolinamide]
4810 |  |  |  | 3.5 | 17.2 |  | CCc1cc2ncc(C(C)N3CC(Oc4ccc(C(=O)NC)nc4F)C3)cc2[nH]c1=O (stereo not drawn) [Compound 21, 5-((1-(1-(7-ethyl-6-oxo-5,6-dihydro-1,5-naphthyridin-3-yl)ethyl)azetidin-3-yl)oxy)-6-fluoro-N-methylpicolinamide]
> 10000 | 39.1 | 0.57 | 22.4 | 3.1 | 11.5 |  | CCc1cc2ncc(CN3CCC(Nc4ccc(C(=O)NC)nc4)C3)cc2[nH]c1=O (stereo not drawn) [Compound 10, 5-((1-((7-ethyl-6-oxo-5,6-dihydro-1,5-naphthyridin-3-yl)methyl)pyrrolidin-3-yl)amino)-N-methylpicolinamide]
9610 | 6.4 | 5.4 | 34.6 | 3.8 | 15.9 |  | CCc1cc2cnc(C(C)N3CC(Oc4ccc(C(=O)NC)nc4)C3)cc2[nH]c1=O (stereo not drawn) [Compound 51, 5-((1-(1-(3-ethyl-2-oxo-1,2-dihydro-1,6-naphthyridin-7-yl)ethyl)azetidin-3-yl)oxy)-N-methylpicolinamide]
> 10000 | 2.16 | 11.8 | 25.4 | 14.8 | 38.2 |  | CCc1nc2ccc(C(C)N3CC(Oc4ccc(C(=O)NC)nc4)C3)cc2[nH]c1=O (stereo not drawn) [Compound 20, 5-((1-(1-(2-ethyl-3-oxo-3,4-dihydroquinoxalin-6-yl)ethyl)azetidin-3-yl)oxy)-N-methylpicolinamide]
> 10000 |  |  |  | 4.3 | 221 |  | CCc1cc2ncc(CN3CC(N(C)c4ccc(C(=O)NC)nc4)C3)cc2[nH]c1=O [Compound 3, 5-((1-((7-ethyl-6-oxo-5,6-dihydro-1,5-naphthyridin-3-yl)methyl)azetidin-3-yl)(methyl)amino)-N-methylpicolinamide]
7040 |  |  |  | 7.8 | 207 |  | CCc1cc2ncc(CN3CCC(Cc4ccc(C(=O)NC)nc4)C3)cc2[nH]c1=O (stereo not drawn) [Compound 7, 5-((1-((7-ethyl-6-oxo-5,6-dihydro-1,5-naphthyridin-3-yl)methyl)pyrrolidin-3-yl)methyl)-N-methylpicolinamide]
